Results taken from patent publication US9456992B2 (XSPRAY MICROPARTICLES AB, priority 2012, dated 2016).
Structures can show the parent of a compound that is named as a salt.

Test: Dissolution measurement assay (apparent solubility, non-sink) in FeSSIF solution (pH 5)
Format: physicochemical
Procedure: The medium was prepared in accordance with the manufacturer's instructions. The amount of powder added depends on the wished “total PKI concentration”. […] For other experiments, the drug load was first estimated by HPLC and the amount of powder to obtain the drug concentration was calculated.
Typically, the powder was added in a 8 mL glass bottle and 7 mL of solution was added (typically FaSSIF, FeSSIF or SGF). The glass bottle was put on a shaker (approximately 1 rotation per minute) for dissolution. Samples of 500 μl where taken after different times, and subsequently centrifuged at approximately 15000 g for 3 minutes. The resulting supernatant was then analyzed by HPLC (C18 column Eclipse, 4.6 mm×15 cm, 1 mL/min, detection at 254-400 nM. Generally samples were taken after 5, 30 and 90 min and eventually 150 min.
The experiments were carried out by measuring concentration of solubilized PKI (mg/L) after 5, 30 and 90 minutes dissolution in a solution at about pH 6.5, namely FaSSIF (Fasted State Simulated Intestinal Fluid). Further, experiments were carried out in an alternative solution at about pH 5, namely FeSSIF (Fed State Simulated Intestinal Fluid). Samples of the solution were taken at various time intervals and the amount of protein kinase inhibitor was measured by the dissolution measurement assay described above.
The experiments were carried out by measuring concentration of PKI (mg/L) after 5, 30 and 90 minutes dissolution in a solution at about pH 6.5, namely FaSSIF (Fasted State Simulated Intestinal Fluid). Further, experiments were carried out in an alternative solution at about pH 5, namely FeSSIF (Fed State Simulated Intestinal Fluid). Samples of the solution were taken at various time intervals and the amount of PKI was measured by the dissolution measurement assay described above.

SMILES | % solubilized 30 min. (nilotinib HCl, after 30 minutes dissolution) | % solubilized 30 min. (erlotinib HCl, 30 min dissolution) | AUC/ 90 min. (erlotinib HCl, AUC during 90 min dissolution)
Cc1cn(-c2cc(NC(=O)c3ccc(C)c(Nc4nccc(-c5cccnc5)n4)c3)cc(C(F)(F)F)c2)cn1 [Exp 41, Nilotinib HCl] | 0.18% | – | –
C#Cc1cccc(Nc2ncnc3cc(OCCOC)c(OCCOC)cc23)c1 [Exp 69, Erlotinib HCl] | – | 19.0% | 16303 Mg/min/L
